Assay [1] concerns the target 5-hydroxytryptamine receptor 6 (Rattus norvegicus) (UniProt P31388). Nature of the assay: Displacement of [3H]-LSD from rat 5-Ht6 receptor expressed in HEK cells at 10 uM after 60 mins by liquid scintillation counting. It is filed as cell-based. Conditions: HEK293.
In assay [2] the target is 5-hydroxytryptamine receptor 6 (Rattus norvegicus, UniProt P31388). The assay is described as follows: Displacement of [3H]-LSD from rat 5-Ht6 receptor expressed in HEK cells after 60 mins by liquid scintillation counting. The format is cell-based, HEK293. For orientation: Displacement assays read how much labelled ligand stays bound in the presence of the test substance.
5-hydroxytryptamine receptor 6, sequence (P31388 whole entry): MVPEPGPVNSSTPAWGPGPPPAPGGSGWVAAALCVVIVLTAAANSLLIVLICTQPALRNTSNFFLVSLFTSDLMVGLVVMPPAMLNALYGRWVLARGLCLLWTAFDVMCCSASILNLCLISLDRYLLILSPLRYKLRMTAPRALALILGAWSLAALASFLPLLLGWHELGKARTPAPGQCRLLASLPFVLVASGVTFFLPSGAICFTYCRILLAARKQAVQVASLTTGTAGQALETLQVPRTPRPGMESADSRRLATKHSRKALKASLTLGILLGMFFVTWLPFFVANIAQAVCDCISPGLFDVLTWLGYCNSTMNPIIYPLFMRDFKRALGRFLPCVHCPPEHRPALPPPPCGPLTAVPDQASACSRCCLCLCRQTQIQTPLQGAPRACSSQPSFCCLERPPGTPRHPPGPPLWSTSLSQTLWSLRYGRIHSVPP

Each structure is given as a SMILES string.

As usually defined, the inhibition is the change of the read-out against control, counted positive when it falls. A high value points to a strong effect. As usually defined, the Ki is the dissociation constant of the complex between target and ligand, obtained from inhibition or displacement. Higher therefore signals lower affinity.

5-hydroxytryptamine receptor 6 (Rattus norvegicus), sequence (P31388 whole entry): as above

As to `CC(C)(C)n1nnnc1C(C1CCCCC1)N1CCc2c([nH]c3ccccc23)CC1=O` (stereo not drawn), in assay [1], the inhibition was found to be 2% and the log(%) was determined as 0.3.
In the same order, the values of `Cc1cccc(C)c1-n1nnnc1C(c1ccc(Cl)cc1)N1CCc2c([nH]c3ccccc23)CC1=O` (stereo not drawn) are 19% and 1.28.
In assay [1], `COc1cccc(C(c2nnnn2C(C)(C)C)N2CCc3c([nH]c4ccccc34)CC2=O)c1OC` (stereo not drawn) yielded an inhibition of 16% and a log(%) of 1.2.
In assay [1], `CC(C)(C)n1nnnc1C(c1ccc(Cl)cc1)N1CCc2c([nH]c3ccccc23)CC1=O` (stereo not drawn) returned an inhibition of 41% and a log(%) of 1.04.
`COc1cccc(C(C(=O)NC(C)(C)C)N2CCc3c([nH]c4ccccc34)CC2=O)c1OC` (stereo not drawn) came in with a Ki in assay [2] of 211 nM. In addition, the log(%) in assay [1] is 1.98.
As for `Cc1cccc(C)c1NC(=O)C(C1CCCCC1)N1CCc2c([nH]c3ccccc23)CC1=O` (stereo not drawn), in assay [1], the inhibition amounted to 7% and the log(%) was found to be 0.85.
In assay [1], `CC(C)(C)n1nnnc1C(c1ccc2c(c1)OCO2)N1CCc2c([nH]c3ccccc23)CC1=O` (stereo not drawn) came in with an inhibition of 12% and a log(%) of 1.08.
In assay [1], `O=C1Cc2[nH]c3ccccc3c2CCN1C(c1ccc(Cl)cc1)c1nnnn1C1CCCCC1` (stereo not drawn) returned an inhibition of 17% and a log(%) of 1.23.
On to `CC(C)(C)NC(=O)C(C1CCCCC1)N1CCc2c([nH]c3ccccc23)CC1=O` (stereo not drawn), for which, in assay [1], the inhibition stood at 10% and the log(%) came out at 1.
In the same order, the values of `CN(C)c1ccc(C(c2nnnn2C(C)(C)C)N2CCc3c([nH]c4ccccc34)CC2=O)cc1` (stereo not drawn) are 1% and 0.
Turning to `Cc1cccc(C)c1-n1nnnc1C(C1CCCCC1)N1CCc2c([nH]c3ccccc23)CC1=O` (stereo not drawn), in assay [1], the inhibition turned out to be 3% and the log(%) amounted to 0.48.
In assay [1], `CC(C)(C)NC(=O)C(c1ccc(Cl)cc1)N1CCc2c([nH]c3ccccc23)CC1=O` (stereo not drawn) gave an inhibition of 42% and a log(%) of 1.62.
In the case of `CSc1ccc2c(c1)C(N1CCN(C)CC1)Cc1ccccc1S2` (stereo not drawn), in assay [1], the inhibition came to 100% and the log(%) turned out to be 2.
In the same order, the values of `CC(C)(C)NC(=O)C(c1ccc2c(c1)OCO2)N1CCc2c([nH]c3ccccc23)CC1=O` (stereo not drawn) are 7% and 0.85.
In the same order, the values of `CN(C)c1ccc(C(C(=O)NC(C)(C)C)N2CCc3c([nH]c4ccccc34)CC2=O)cc1` (stereo not drawn) are 16% and 1.2.
In the same order, the values of `CC(C)(C)NC(=O)C(c1ccc(Br)cc1)N1CCc2c([nH]c3ccccc23)CC1=O` (stereo not drawn) are 66% and 1.82.
In the case of `O=C(NC1CCCCC1)C(c1ccc(Cl)cc1)N1CCc2c([nH]c3ccccc23)CC1=O` (stereo not drawn), in assay [1], the inhibition was 15% and the log(%) is 1.18.
Turning to `CC(C)(C)n1nnnc1C(c1ccc(Br)cc1)N1CCc2c([nH]c3ccccc23)CC1=O` (stereo not drawn), in assay [1], the inhibition came out at 57% and the log(%) came out at 1.76.
For `Cc1cccc(C)c1NC(=O)C(c1ccc(Cl)cc1)N1CCc2c([nH]c3ccccc23)CC1=O` (stereo not drawn), in assay [1], the inhibition came to 21% and the log(%) amounted to 1.32.

The values are drawn from ChEMBL document CHEMBL3797124, “Synthesis of azepino[4,5-b]indol-4-ones via MCR/free radical cyclization and in vitro-in silico studies as 5-Ht₆R ligands” (Bioorg Med Chem Lett, 2016).
